Test: Cetylpyridinium chloride adsorption on mucin-coated hydroxyapatite disks, HPLC of extract
Type: physicochemical
Conditions: for % Activity: relative to no surfactant
Method: Disks of hydroxyapatite (HAP) measuring 0.5 inch diameter and 0.04 inch thick were obtained from Clarkson Chromatography Products (Williamsport, Penn.). The disks were hydrated in deionized water for one hour and then allowed to air dry.
A 1% dispersion of bovine submaxillary mucin (type 1S, from Sigma) was then prepared. The HAP disks were then soaked in the 1% mucin dispersion overnight. The disks were then allowed to air dry for al least 2 hours. These disks, composed of HAP on which was deposited a layer of mucin, represented an oral surface.
The disks were soaked in 5 ml of the test solution for 10 minutes in a polystyrene petri dish (35 mm diameter×10 mm deep, from Becton Dickinson). The disks were then removed, rinsed for 3 seconds with deionized water on each side with a wash bottle.
The extractant solution is composed of 60 parts of a 20 mM phosphate buffer and 40 parts methanol, in which is dissolved 30 mM cetyltrimethylammonium bromide. The disks were soaked in 5 ml of the extractant solution for 2 hours.

[1] = Example 2: test solution as Example 1, also 0.125% by weight sodium bicarbonate
[2] = Example 1: test solution 0.125% cetylpyridinium chloride + 0.9% surfactant, disks soaked 10 minutes
[3] = Example 1: test solution 0.125% cetylpyridinium chloride + 0.9% surfactant

Molecule	CPC adsorbed [1]	% Activity [1]	CPC adsorbed [2]	% Activity [3]	cetylpyridinium chloride absorbed (in words) (Example 1 test solutions)
CCCCCCCC[NH2+][O-] [Octylamine oxide]	47.4 μg/disk	76.0%	–	–	–
Dodecyl-Amphodiacetate	10.6 μg/disk	17.0%	–	–	–
Cocobetaine	48.8 μg/disk	78.2%	–	–	–
CCCCCCCCCC[NH2+][O-] [Decylamine oxide]	39.1 μg/disk	62.7%	–	–	–
Dodecyl-Iminodipropionate	7.4 μg/disk	11.9%	–	–	–
Cocoamphodiacetate	–	–	8.0 μg/disk	13.5%	–
Cocamidopropyl betaine	41.2 μg/disk	66.0%	41.8 μg/disk	70.4%	clearly superior

Reference: patent publication US6471948B1 (Church & Dwight Co. Inc., priority 2000, dated 2002)
